# Laboratory results taken from patent publication US9359605B2, “Method of treating cancer by inhibition of DNA repair proteins” (Sarissa Inc., priority 2011, dated 2016).
# Like-named read-outs stand apart in the source and are kept apart here. d = 2'-deoxy (DNA); m = 2'-O-methyl
# What was measured:
# A549b cells [1] = experiment: Anti-proliferative activity of a drug on A549b cells pretreated with anti-BRCA2 OLIGO/siRNA; format: cell-based; conditions: Homo sapiens, curves conservatively extrapolated, read-out: concentration of olaparib required to inhibit proliferation of A549b cells by 50% (IC50)
# Description: OLIGOs were introduced into cells with the use of Lipofectamine 2000 (LFA2K) (Invitrogen, Burlington, Ontario, Canada). OLIGOs were mixed with LFA2K at a ratio of 0.2 μg/ml per 10 nM OLIGO. The mixture was prepared at 11× the final concentration to which cells were exposed, so that 200 μL was added to 2 mL of medium in which cells were plated. After incubating at room temperature for 20 minutes, according to manufacturer's instructions, the OLIGOs were added to the cell medium. The OLIGO/LFA2K mix was then incubated (37° C.) on the cells for 4 hours, after which a second volume of medium was added. Cells were then incubated for 20 hours. […]
# For cells treated with the drug olaparib, for the purposes of determining whether inhibitory activity was enhanced by the OLIGO pretreatment, olaparib was added at this time, in concentrations of from 0.01 μM to 3 μM. […] Following a further 4-day incubation, the proliferation of the treated cells (fold-increase in cell number) was calculated as a percentage of that of control cells. […] As indicated in Example 1, for the purpose of determining the anti-proliferative effect of antisense OLIGOs alone, the proliferation of cells treated with antisense OLIGOs was calculated as a percent of that of cells treated with an equivalent concentration of non-complementary control OLIGO (in this case OLIGO 32). […]
# A549b cells [2] = experiment: Proliferation of A549b cells after transfection with antisense OLIGO/siRNA (cell counting, % of control OLIGO); format: cell-based, human; conditions: 20 nM; compared to non-targeting OLIGO 491S; preliminary assay, FIG. 12
# Description: Cultured cell lines were maintained in minimum essential medium a with nucleosides plus 10% fetal bovine serum and penicillin (50 units/mL)/streptomycin (50 mg/L) (growth medium). Cultures were incubated in a humidified atmosphere of 5% CO2 at 37° C. Cultured cell lines were maintained and cytotoxicity assays conducted as described previously (3). Rapidly proliferating cells were utilized for establishing cultures of experimental cells, which were allowed to plate overnight in 25-cm^2 flasks prior to manipulation. […]
# OLIGOs were introduced into cells with the use of Lipofectamine 2000 (LFA2K) (Invitrogen, Burlington, Ontario, Canada). […] Following the 4-day incubation, the proliferation of the treated cells (fold-increase in cell number) was calculated as a percentage of that of control cells. […] For the purpose of determining the anti-proliferative effect of antisense OLIGOs, the proliferation of cells treated with antisense OLIGOs was calculated as a percent of that of cells treated with an equivalent concentration of non-complementary control OLIGO (in this case OLIGO 32) mixed with an equivalent amount of LFA2K.
# These experiments were carried out essentially as described in Example 2, after which one volume of medium was added, and cells were further incubated for 20 hours. […] Cells were incubated for 4 days, at which time cell number was counted. […]
# BRCA2 mRNA = experiment: RT-qPCR of BRCA2 mRNA 24 h after OLIGO transfection of A549 cells; format: cell-based, human; conditions: 20 nM OLIGO, 24 h post-transfection, FIG. 16
# Description: (§1) Briefly, A549 cells seeded at a density of 2.0×10^5 per flask were transfected with 20 nM of OLIGO specific for each target or control OLIGO using Lipofectamine 2000 as the transfection reagent. Twenty four hours post-transfection mRNA was extracted and reverse transcribed into cDNA. RT-qPCR was performed for target mRNA levels using TaqMan reagents according to established protocols.
# [3] = system: thymidylate synthase mRNA; experiment: RT-qPCR of TS mRNA 24 h after OLIGO transfection of A549 cells; format: cell-based, human; conditions: 20 nM OLIGO, 24 h post-transfection, FIG. 16
# Description: as §1
IC50 (A549b cells [1]; in the absence of BR1) [nM],IC50 (A549b cells [1]; in the presence of BR1 (pretreatment)) [nM],Molecule,relative proliferation (A549b cells [2]),effect on BRCA2 mRNA level (BRCA2 mRNA),effect on TS mRNA level [3]
~5000,~50,O=C(c1cc(Cc2n[nH]c(=O)c3ccccc23)ccc1F)N1CCN(C(=O)C2CC2)CC1 [olaparib],–,–,–
–,–,"OLIGO 83: antisense to 3′-untranslated region of thymidylate synthase mRNA, 5′-gccaguGGCAACATccuuaa-3′ (SEQ ID NO: 25), fully phosphorothioated (antisense GCCAGUGGCAACATCCUUAA; sugars from the 5' end m6 d8 m6, all phosphorothioate, methylation of C not given here)",approximately 20%,no significant effect,reduce
